Tests used:
Test in all cases: relative viability (nuclei count vs DMSO), 5 days (fraction); higher = more cells survive
[1] = compound: Cc1ccc(C(=O)N(CCCN)[C@@H](c2nc3cc(Cl)ccc3c(=O)n2Cc2ccccc2)C(C)C)cc1 [Ispinesib] + C[C@@H](Oc1cc(-c2cnn(C3CCNCC3)c2)cnc1N)c1c(Cl)ccc(F)c1Cl [Crizotinib] (partner 1 µM)
Outline: (§1)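 Lung cancer cell lines, seeded in 1536-well plates, were treated the following day by pin tool with a single drug or with five library-drug doses (not always all listed) in √10 steps on top of a fixed anchor-drug dose. Cells were fixed and nuclei stained in one step after 5 days, and nuclei were counted. Relative viability is the nuclei count for treated wells divided by that for vehicle wells, reported as medians of duplicate plates.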

[2] = compound: Cc1ccc(C(=O)N(CCCN)[C@@H](c2nc3cc(Cl)ccc3c(=O)n2Cc2ccccc2)C(C)C)cc1 [Ispinesib] + CS(=O)(=O)N1CCN(Cc2cc3nc(-c4cccc5[nH]ncc45)nc(N4CCOCC4)c3s2)CC1 [Pictilisib] (partner 1 µM)
Outline: as §1

[3] = compound: Cc1ccc(C(=O)N(CCCN)[C@@H](c2nc3cc(Cl)ccc3c(=O)n2Cc2ccccc2)C(C)C)cc1 [Ispinesib] + O=C(CCCCCCC(=O)Nc1ccccc1)NO [Vorinostat] (partner 1 µM)
Outline: as §1

[4] = compound: C[C@]1(O)C[C@@H](c2nc(-c3ccc4ccc(-c5ccccc5)nc4c3)c3c(N)nccn32)C1 [Linsitinib] + COc1cccc2cc(-c3nc([C@H]4CC[C@H](C(=O)O)CC4)n4ncnc(N)c34)[nH]c12 [OSI-027] (partner 0.5 µM)
Outline: as §1

Cell Line	relative viability ([1]; first compound 0.001 µM)	relative viability ([1]; first compound 0.003162 µM)	relative viability ([1]; first compound 0.01 µM)	relative viability ([1]; first compound 0.03162 µM)	relative viability ([1]; first compound 0.1 µM)	relative viability ([2]; first compound 0.001 µM)	relative viability ([2]; first compound 0.003162 µM)	relative viability ([2]; first compound 0.01 µM)	relative viability ([2]; first compound 0.03162 µM)	relative viability ([2]; first compound 0.1 µM)	relative viability ([3]; first compound 0.001 µM)	relative viability ([3]; first compound 0.003162 µM)	relative viability ([3]; first compound 0.01 µM)	relative viability ([3]; first compound 0.03162 µM)	relative viability ([3]; first compound 0.1 µM)	relative viability ([4]; first compound 0.01 µM)	relative viability ([4]; first compound 0.03162 µM)	relative viability ([4]; first compound 0.1 µM)	relative viability ([4]; first compound 0.3162 µM)	relative viability ([4]; first compound 1 µM)
NCI-H1650	0.91	1.05	0.769	0.223	0.325	0.586	0.576	0.338	0.164	0.266	0.779	0.535	0.521	0.416	0.234	0.576	0.598	0.527	0.242	0.222
NCI-H1651	0.855	0.936	0.99	0.959	0.735	0.623	0.66	0.8	0.491	0.18	0.529	0.605	0.676	0.512	0.548	0.646	0.654	0.646	0.581	0.543
NCI-H1666	0.952	1.12	0.948	0.794	0.293	0.42	0.404	0.42	0.302	0.312	1.11	1.05	1.08	1.07	0.84	0.772	0.957	0.759	0.476	0.434
NCI-H1734	0.662	0.77	0.893	0.648	0.483	0.414	0.476	0.506	0.34	0.233	0.854	0.904	0.91	0.552	0.262	0.737	0.469	0.634	0.504	0.293
NCI-H1755	0.881	0.622	0.945	0.864	0.461	0.403	0.464	0.534	0.22	0.194	0.726	0.789	0.937	0.636	0.419	0.681	0.77	0.737	0.356	0.487
NCI-H1915	0.972	0.675	0.926	0.842	0.432	0.969	1.07	0.977	0.532	0.232	0.532	0.539	0.525	0.238	0.101	0.646	0.678	0.623	0.515	0.392
NCI-H1944	1.2	1.16	1.18	0.697	0.573	0.402	0.398	0.341	0.288	0.219	0.671	0.496	0.575	0.345	0.152	0.427	0.474	0.393	0.315	0.217
NCI-H1975	1.09	1.02	1.08	0.491	0.205	0.295	0.276	0.272	0.153	0.164	0.738	0.766	0.798	0.586	0.279	0.68	0.738	0.722	0.544	0.347
NCI-H1993	0.837	0.914	0.874	0.891	0.661	0.808	0.828	0.806	0.7	0.611	0.984	0.738	0.74	0.515	0.438	0.502	0.534	0.525	0.407	0.679
NCI-H2009	1.04	1.01	0.999	0.589	0.288	0.782	0.804	0.58	0.0875	0.173	0.859	0.732	0.746	0.72	0.213	0.746	0.646	0.696		0.428
NCI-H2023	0.616	0.657	0.598	0.457	0.13	0.271	0.237	0.273	0.0793	0.125	0.646	0.563	0.43	0.237	0.162	0.425	0.215	0.358	0.212	0.12
NCI-H2085	0.931	0.973	0.701	0.777	0.56	0.485	0.406	0.504	0.43	0.307	0.773	0.762	0.864	0.594	0.429	0.681	0.657	0.814	0.712	0.431
NCI-H2087	0.839	1	0.995	0.61	0.146	0.94	0.881	1.13	0.313	0.187	0.963	0.45	0.937	0.995	0.141	0.691	0.582	0.463	0.362	0.182
NCI-H2126	1.03	1.05	1.09	1.07	0.923	0.505	0.56	0.563	0.476	0.39	0.754	0.867	0.932	0.789	0.289	0.671	0.909	0.596	0.478	0.358
NCI-H2170	1.34	1.31	1.33	0.693	0.411	0.317	0.312	0.295	0.254	0.288	0.923	0.77	0.969	0.502	0.199	0.752	0.756	0.708	0.417	0.638
NCI-H2228	0.511	0.4	0.539	0.374	0.207	0.483	0.554	0.469	0.319	0.264	0.742	0.786	0.722	0.341	0.242	0.57	0.604	0.492	0.335	0.254

From the supplement of paper PMC10307832
